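48-hour exposure; five concentrations; linearly interpolated endpoints. At the GI50, growth is halved.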 Activity calls are given as the source filed them. Rule as the data show it: active = GI50 up to about 1.1 µM and inactive = higher.

Test systems include SW-620; Malme-3M; Hs-578T; UO-31; SNB-19; M14; MDA-MB-231; TK-10; HCC 2998; UACC-62; MDA-N; NCI-H226; COLO 205; PC-3; IGROV-1; HCT-15; SK-OV-3; SR; RPMI-8226.
Holding throughout (experiment): NCI-60 cell line screen, 48 h

As for `CC(=O)OCCOCCN1CCN(C2=C(Cl)C(=O)c3c(O)ccc(O)c3C2=O)CC1`, the GI50 in the assay on SW-620 was 0.179 µM (active); with Malme-3M it was 0.318 µM (active); with Hs-578T, 3.1 µM (inactive); in the assay on UO-31, 1.22 µM (inactive); with SNB-19, 3.04 µM (inactive); in the assay on M14, 0.458 µM (active). For the same molecule, the GI50 with MDA-MB-231 is 0.397 µM (active); with TK-10 it was 0.46 µM (active); with HCC 2998, 2.37 µM (inactive); in the assay on UACC-62 it was 1.38 µM (inactive); in the assay with MDA-N, 0.497 µM (active); with NCI-H226, 2.89 µM (inactive). Also, the GI50 is 0.231 µM (active) in the assay on COLO 205; 1.51 µM (inactive) with PC-3; 1.55 µM (inactive) with IGROV-1; 0.365 µM in the assay on HCT-15; 3.66 µM (inactive) in the assay with SK-OV-3; 0.0444 µM (active) with SR. In addition, the GI50 in the assay on RPMI-8226 was 0.249 µM (active).
In the case of `C/C=C/OC1C(C2COC(C)(C)O2)OC2OC(C)(C)OC21` (stereo not given), the GI50 with SW-620, with Malme-3M, with Hs-578T, in the assay with UO-31, in the assay with SNB-19 and with M14 was > 100 µM (inactive) each time. The GI50 in the assay with MDA-MB-231, in the assay with TK-10, in the assay on HCC 2998, in the assay with MDA-N, with PC-3 and in the assay with IGROV-1 was > 100 µM (inactive) in each case. The GI50 in the assay on HCT-15 is greater than 100 µM; in the assay on SK-OV-3, > 100 µM (inactive); in the assay with SR it was > 100 µM (inactive); in the assay with RPMI-8226 it was > 100 µM (inactive).
`COc1ccc2c(c1)CCc1c-2n(CCN(C)C)c2ccc(OC)cc12`: the GI50 is 5.37 µM (inactive) with SW-620; 19.7 µM (inactive) with Malme-3M; 21.4 µM (inactive) in the assay with Hs-578T; 14 µM (inactive) in the assay with UO-31; 11.6 µM (inactive) in the assay with SNB-19; 3.6 µM (inactive) with M14. Also, the GI50 in the assay with MDA-MB-231 is 11.2 µM (inactive); in the assay with TK-10, 24.2 µM (inactive); with HCC 2998, 3.09 µM (inactive); in the assay with UACC-62, 9.42 µM (inactive); in the assay on MDA-N, 5.46 µM (inactive); in the assay on NCI-H226 it was 3.03 µM (inactive). Also, the GI50 was 4.38 µM (inactive) in the assay with COLO 205; 12.1 µM (inactive) in the assay on PC-3; 18.7 µM (inactive) with IGROV-1; 11.4 µM in the assay on HCT-15; 25.9 µM (inactive) with SK-OV-3; 3.95 µM (inactive) in the assay with SR. In the assay with RPMI-8226, the GI50 is 4.92 µM (inactive).
Consider `CC(=O)OC12c3ccccc3-c3ccccc3C1C1C(=O)OC(=O)C12` (stereo not given), for which the GI50 in the assay on SW-620, with Malme-3M, in the assay on Hs-578T, in the assay with UO-31, in the assay with SNB-19 and with M14 was > 10 µM (inactive) in each case. Moreover, the GI50 in the assay on MDA-MB-231, in the assay on TK-10, in the assay on HCC 2998, in the assay with MDA-N, in the assay on NCI-H226 and with COLO 205 was > 10 µM (inactive) in each case. The GI50 with PC-3 is > 10 µM (inactive); in the assay on IGROV-1 it was > 10 µM (inactive); in the assay with HCT-15, greater than 10 µM; in the assay with SK-OV-3, > 10 µM (inactive); with SR, > 10 µM (inactive); in the assay on RPMI-8226, > 10 µM (inactive).
For the molecule `CC(=O)c1ccc2c(c1)CC1(C2)Cc2cc3c(c(C(=O)O)c2C1)CCC3` (stereo not given), the GI50 in the assay with SW-620 is > 100 µM (inactive); in the assay on Malme-3M, 53.1 µM (inactive); in the assay with Hs-578T it was 33 µM (inactive); with UO-31, 40 µM (inactive); in the assay with MDA-MB-231 it was > 100 µM (inactive); in the assay on TK-10, > 100 µM (inactive). Besides, the GI50 in the assay on HCC 2998 was > 100 µM (inactive); in the assay on UACC-62, 72.1 µM (inactive); with MDA-N, > 100 µM (inactive); with NCI-H226, > 100 µM (inactive); in the assay with COLO 205, 53.1 µM (inactive); in the assay on PC-3, > 100 µM (inactive). Also, the GI50 in the assay on IGROV-1 is > 100 µM (inactive); with HCT-15 it was greater than 100 µM; in the assay with SK-OV-3 it was > 100 µM (inactive); with SR, 71.6 µM (inactive); in the assay with RPMI-8226, 63.7 µM (inactive).
On to `CC1(C)N=c2c(ncn2CCO)=C(C(N)=O)N1`, for which the GI50 in the assay on SW-620, in the assay on Malme-3M, with Hs-578T, in the assay on SNB-19, with M14 and with MDA-MB-231 was > 100 µM (inactive) in each case. Besides, the GI50 with TK-10, with HCC 2998, with UACC-62, with MDA-N, with NCI-H226 and in the assay with COLO 205 was > 100 µM (inactive) each time. In addition, the GI50 in the assay with PC-3 is > 100 µM (inactive); with IGROV-1 it was > 100 µM (inactive); with HCT-15 it was greater than 100 µM; with SK-OV-3, > 100 µM (inactive); with SR it was > 100 µM (inactive); in the assay on RPMI-8226, > 100 µM (inactive).
As to `Oc1ccccc1-c1n[nH]c(-c2ccccc2O)n1`, the GI50 with SW-620 is 2.55 µM (inactive); in the assay on Malme-3M it was 2.84 µM (inactive); in the assay on Hs-578T, > 66.1 µM (inactive); with UO-31, 5.25 µM (inactive); in the assay on M14, 2.38 µM (inactive); with MDA-MB-231 it was 1.44 µM (inactive). Besides, the GI50 was 3.27 µM (inactive) in the assay on TK-10; 3.9 µM (inactive) with HCC 2998; 7.59 µM (inactive) in the assay on UACC-62; > 100 µM (inactive) in the assay on MDA-N; 4.38 µM (inactive) in the assay on NCI-H226; 4.25 µM (inactive) with COLO 205. For the same molecule, the GI50 in the assay with PC-3 was 2.24 µM (inactive); in the assay with IGROV-1, 0.407 µM (active); in the assay with HCT-15, 0.149 µM; in the assay on SK-OV-3, 3.15 µM (inactive); in the assay on SR, 0.807 µM (active); with RPMI-8226, 2.44 µM (inactive).
For `Clc1ccc(/C=N/C23CC4CC(CC(C4)C2)C3)cc1Cl`, the GI50 with SW-620, in the assay on Malme-3M, in the assay on Hs-578T, in the assay on SNB-19, with M14 and with MDA-MB-231 was > 10 µM (inactive) throughout. For the same molecule, the GI50 in the assay on TK-10, in the assay with HCC 2998, in the assay with UACC-62, with MDA-N, with NCI-H226 and in the assay with COLO 205 was > 10 µM (inactive) throughout. The GI50 was > 10 µM (inactive) in the assay on PC-3; > 10 µM (inactive) in the assay with IGROV-1; greater than 10 µM in the assay on HCT-15; > 10 µM (inactive) in the assay on SK-OV-3; > 10 µM (inactive) in the assay on SR; > 10 µM (inactive) in the assay with RPMI-8226.
On to `O=C1CCc2ccccc2O1` [DIHYDROCOUMARIN], for which the GI50 with SW-620, with Malme-3M, with Hs-578T, with UO-31, with SNB-19 and in the assay on MDA-MB-231 was > 100 µM (inactive) in each case. Also, the GI50 in the assay with TK-10 was > 100 µM (inactive); in the assay on HCC 2998, > 100 µM (inactive); in the assay on UACC-62 it was > 100 µM (inactive); in the assay on MDA-N it was 53.1 µM (inactive); in the assay with NCI-H226, > 100 µM (inactive); in the assay on COLO 205 it was > 100 µM (inactive). Further, the GI50 with PC-3 was > 100 µM (inactive); in the assay with IGROV-1 it was > 100 µM (inactive); with HCT-15, greater than 100 µM; with SK-OV-3, > 100 µM (inactive); in the assay on SR, > 100 µM (inactive); in the assay on RPMI-8226 it was > 100 µM (inactive).
With `CC1CC(C)C(O)C(C2CC(CC(=O)NC3CCCCC3)CC(=O)O2)C1` (stereo not given), the GI50 with SW-620, in the assay on Malme-3M, with Hs-578T, with SNB-19, in the assay on M14 and with MDA-MB-231 was > 100 µM (inactive) in each case. In addition, the GI50 in the assay on TK-10, with HCC 2998, in the assay on MDA-N, in the assay on NCI-H226, in the assay with COLO 205 and in the assay with PC-3 was > 100 µM (inactive) each time. Further, the GI50 is > 100 µM (inactive) in the assay with IGROV-1, greater than 100 µM with HCT-15, > 100 µM (inactive) with SR and > 100 µM (inactive) in the assay on RPMI-8226.
As to `CCCN(CCC)C(=S)N/N=C/c1cccc(C)n1`, the GI50 in the assay with SW-620 was 0.054 µM (active); with Malme-3M it was 0.697 µM (active); in the assay on Hs-578T, 2.16 µM (inactive); in the assay on UO-31 it was 0.177 µM (active); in the assay with SNB-19, 0.533 µM (active); in the assay on M14 it was < 0.01 µM (active). Further, the GI50 in the assay on MDA-MB-231 is < 0.01 µM (active); in the assay with TK-10 it was 0.142 µM (active); in the assay with UACC-62, 0.303 µM (active); in the assay on MDA-N, 0.621 µM (active); in the assay with NCI-H226, 0.129 µM (active); in the assay on COLO 205, < 0.01 µM (active). Besides, the GI50 with PC-3 is 0.0773 µM (active); in the assay with IGROV-1, 0.0733 µM (active); in the assay with HCT-15, 0.0438 µM; in the assay with SK-OV-3, 0.718 µM (active); in the assay on SR, 0.0571 µM (active); in the assay on RPMI-8226 it was 0.0239 µM (active).

Values taken from ChEMBL document CHEMBL1201862, “PubChem BioAssay data set” (2004).
